In patent US20100029599A1, “Indolylamides as modulators of the EP2 receptor” (BAYER SCHERING PHARMA AKTIENGESELLSCHAFT, priority 2008, published 2010):

Columns and labels:
[1] = system: cumulus-oocyte complexes (cumulus expansion); test: Cumulus expansion assay in vitro; format: cell-based, mice; details: in competition with PGE2
Experimental: Folliculogenesis was induced in immature female mice (strain: CD1 (ICR) from Charles River) at an age of 14-18 days by a single dose (intraperitoneal) of 10 I.U. of PMSG (Pregnant Mare Serum Gonadotropin; Sigma G-4877, lot 68H0909). 47-50 hours after the injection, the ovaries were removed and the cumulus-oocyte complexes were removed. The cumulus complex is not yet expanded at this stage.
The cumulus-oocyte complexes were then incubated with prostaglandin E2 (PGE2) (0.3 μM), vehicle control (ethanol) or test substances for 20-24 hours. Medium: alpha-MEM medium with 0.1 mM IBMX, pyruvates (0.23 mM) glutamines (2 mM), pen/strep 100 IU/ml pen. and 100 μg/ml strep. and HSA (8 mg/ml). Cumulus expansion was then established through the division into four stages (according to Vanderhyden et al. Dev Biol. 1990 August; 140(2):307-317).

[2] = target: T1, EP2 subtype of the human PGE2 receptor (Homo sapiens, UniProt P43116); test: cellular cAMP agonism assay; format: cell-based; details: without PGE2
T1 construct: host or cells: cells in a cell culture plate
Experimental: The binding of PGE2 to the EP2 subtype of the human PGE2 receptor induces activation of membrane-associated adenylate cyclases and leads to the formation of cAMP. In the presence of the phosphodiesterase inhibitor IBMX, cAMP which has accumulated due to this stimulation and been released by cell lysis is employed in a competitive detection method. In this assay, the cAMP in the lysate competes with cAMP-XL665 for binding of an Eu cryptate-labelled anti-cAMP antibody.
The two signals are measured in a suitable measuring instrument with a time lag, i.e. after the background fluorescence has declined.
The substance solutions (0.75 μl) introduced into an into an assay plate and 30% DMSO were dissolved in 16 μl of a KRSB+IBMX stimulation solution (1× Krebs-Ringer Bicarbonate Buffer; Sigma-Aldrich # K-4002; including 750 μM 3-isobutyl-1-methylxanthine Sigma-Aldrich # I-7018), and then 15 μl thereof were transferred into a media-free cell culture plate which has been washed with KRSB shortly beforehand.
After incubation at room temperature (RT; volume: ˜15 μl) for 60 minutes, the reaction was then stopped by adding 5 μl of lysis buffer and incubated at RT for a further 20 min (volume: ˜20 μl). The cell lysate was then transferred into a measuring plate and measured in accordance with the manufacturer's instructions (cyclic AMP kit Cisbio International # 62AMPPEC).

T1 sequence (P43116 whole entry): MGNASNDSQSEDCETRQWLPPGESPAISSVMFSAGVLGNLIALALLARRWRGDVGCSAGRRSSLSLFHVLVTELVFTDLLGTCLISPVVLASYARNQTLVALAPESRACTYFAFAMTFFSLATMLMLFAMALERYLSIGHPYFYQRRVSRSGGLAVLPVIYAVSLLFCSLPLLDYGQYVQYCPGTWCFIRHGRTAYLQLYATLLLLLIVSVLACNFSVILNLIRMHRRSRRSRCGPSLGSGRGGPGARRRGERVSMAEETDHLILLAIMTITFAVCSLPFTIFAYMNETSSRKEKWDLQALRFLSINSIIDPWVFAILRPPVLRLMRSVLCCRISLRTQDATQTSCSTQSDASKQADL

| SMILES | suppression of the expansion of the cumulus ([1]; 100-200 μM) | effect in the cellular agonism test [2] | suppression of cumulus expansion ([1]; 5 μM) |
| --- | --- | --- | --- |
| CC(C)Oc1ccc2c(=O)c3cc(C(=O)O)ccc3oc2c1 [AH 6809, reference compound] | approx. 30% |  |  |
| Cc1[nH]c2c(F)ccc(C)c2c1CCNC(=O)c1cc2ccc(C(=O)NCC(N)=O)cc2[nH]1 [Example 6, 2-N-[2-(7-fluoro-2,4-dimethyl-1H-indol-3-yl)ethyl]-6-N-carbamoylmethyl-1H-indole-2,6-dicarboxamide] |  | no inhibition | approx. 67% |
